Data as given in US6989263B1, “Method for identifying and using compounds that inactivate HIV-1 and other retroviruses by attacking highly conserved zinc fingers in the viral nucleocapsid protein” (The United States of America as represented by the …, priority 1994, dated 2006).

Legend:
[1] = biological target: T1, HIV NC protein in intact virus (Human immunodeficiency virus type 1 group M subtype B, UniProt P05888); assay: Cross-linking of NC protein in intact HIV (non-reducing gel-mobility shift, western blot); type: biochemical, HIV-1
T1 construct: endogenous in cells; host or cells: intact HIV virions
Excerpt: Purified concentrated retrovirus and antisera against the purified NC protein of the virus can be used to test the ability of a specific compound to penetrate the virus and react with the NC protein by forming disulfide complexes in the core of the virus. The compound is mixed with the whole retrovirus under reaction conditions appropriate for the compound. The virus is then removed from the reagent by centrifugation and disrupted in, e.g, standard SDS-PAGE sample buffer with (reduced) and without (non-reduced) 2-mercaptoethanol. The viral proteins are then separated by standard SDS-PAGE and the sample examined for the presence or absence of the monomeric NC protein in the non-reduced sample. Depending upon the virus used in the experiment and the conditions of electrophoresis, the NC protein can be visualized by protein staining methods, or by immuno-blot (e.g., western) methods. Compounds which react with the NC protein by attacking the zinc finger complexes and forming disulfide cross-linked products (i.e., which generate multimers in the mobility shift assay) inactivate the virus. Thus, compounds of interest (i.e., those which cause cross-linking) reduced the amount of monomeric NC protein detected.
In order to determine whether HIV-1MN was inactivated by NOBA, the virus was incubated with varying concentrations of NOBA (3.0, 0.3, 0.03 and 0 mM) as in Table 1. The reaction products were pelleted by centrifugation, and separated by SDS-PAGE under reducing (2% 2-mercaptoethanol, panel A), or non-reducing conditions (panel B). p7NC was visualized by immunoblot analysis using monospecific rabbit antisera to the purified NC proteins as per L. E. Henderson et al., J. Virol. 66:1856 (1992).
Disulfide reagents were further tested for their ability to disrupt NC structure in the virus, based on their ability to cause inter-NC cysteine disulfide bonds (i.e., cross-linking) in the intact virus. The formation of inter-NC cysteine disulfides creates NC multimers, which migrate through a non-reducing gel at a different rate than NC monomers, as described above. Intact HIV virus (generally 12.5 μM) was exposed to the specified reagent (generally 25 μM) for varying lengths of time and electrophoresed through a non-reducing SDS-polyacrylamide gel. HIV NC monomers and multimers were visualized by western blot analysis as described above in Example 3. The approximate time required to cross-link one-half of the NC proteins in the virus at the specified reaction conditions was then determined. […] The top number in the cells of the X-link column in Table 2 refers to the approximate time in minutes required for one-half of the HIV NC proteins to become cross-linked.

p7NC = biological target: T2, p7NC (Human immunodeficiency virus type 1 group M subtype B, UniProt P05888); assay: HPLC analysis of reaction products of purified p7NC with reagent; type: biochemical, HIV-1
T2 construct: The NC protein of HIV-1 (MN) p7NC was expressed in E. coli; made in house; host or cells: E. coli (vector pMAL-c)
Summary of the method: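 Purified zinc-reconstituted p7NC (63 μM) incubated 10 min with reagent at 6:1 reagent:protein; products resolved by reversed-phase C-18 HPLC at pH 2 (0.05% TFA) with acetonitrile gradient. Rated fast (full conversion), slow (>10% native remaining) or very slow (>50% native remaining).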

[2] = biological target: HIV-1 CCHC zinc finger array (Human immunodeficiency virus type 1 group M subtype B, UniProt P04591); conditions: incubation of HIV-1; cited from earlier work
lymphocytes = conditions: cited from earlier work
proviral DNA synthesis = conditions: cited from earlier work
HV-1 protease = HV-1 protease (Human immunodeficiency virus type 1 group M subtype B, UniProt P04585); conditions: cited from earlier work
[3] = biological target: reverse transcriptase enzyme (Human immunodeficiency virus type 1 group M subtype B, UniProt P04585); conditions: cited from earlier work

NC(=O)c1cccc(N=O)c1 [NOBA, 3-nitrosobenzamide]
cross-linking of the HIV-1 NC protein in intact virus (gel-mobility shift), in words [1]: caused a cross-linking of the HIV-1 NC protein
amounts of detected p7NC under non-reducing conditions ([1]; HIV-1MN, NOBA 3.0, 0.3, 0.03 mM, immunoblot): decreased with increasing NOBA concentration
reaction with purified p7NC (HPLC), in words (p7NC): oxidizes p7NC to products eluting as peaks A and B
zinc loss from the HIV-1 CCHC zinc finger array [2]: loss of zinc
bindings of virus to lymphocytes (lymphocytes): did not influence
proviral DNA synthesis (proviral DNA synthesis): blocked
enzymatic activity of HV-1 protease (HV-1 protease): did not influence
effect on the reverse transcriptase enzyme [3]: without direct impairment
